Laboratory results published in patent publication US20090099123A1, “Antisense microRNA and uses therefor” (priority 2007, published 2009).

Assays:
[1] = tested on: prostate and pancreatic tumors and cells; conditions: cited from earlier work
miR-27a [2] = conditions: these and other cancer cells (refs 23, 42, 43); cited from earlier work
Myt-1, Wee-1 and cdc2 = test: Myt-1 and Wee-1 expression and cdc2 phosphorylation in colon cancer cells; type: cell-based
Description: (§1) FIGS. 13A-13D show the in vitro and in vivo effects of β-CDODA-Me on G2/M arrest and inhibition of tumor growth. Effects of β-CDODA-Me (FIG. 13A, 13B) and as-miR-27a (FIG. 13C) on Myt-1 and cdc2 phosphorylation. Colon cancer cells were treated with different amounts of β-CDODA-Me or as-miR-27a for the indicated times, and Myt-1 expression and cdc2 phosphorylation were determined by real time PCR or Western blots, respectively. […] FIGS. 13D-13F: β-CDODA-Me inhibit tumor growth (volume) (FIG. 13D), weight (FIG. 13E) and miR-27a expression (FIG. 13F) in a mouse xenograft model. Nude mice bearing RKO cells as xenografts were treated with corn oil (solvent control) or β-CDODA-Me (15 mg/kg/d), and tumor volumes, tumor weights, and miR-27a expression were determined.
(§2) cDNA was prepared from the RKO and SW480, cell lines using Reverse Transcription System (Promega). Each PCR was carried out in triplicate in a 20-μl volume using SYBR Green Mastermix (Applied Biosystems, Foster City, Calif.) for 15 min at 95° C. for initial denaturing, followed by 40 cycles of 95° C. for 30 s and 60° C. for 1 min in the Applied Biosystems 7900HT Fast Real-time PCR System. The ABI Dissociation Curves software was used following a brief thermal protocol (95° C. for 15 s and 60° C. for 15 s, followed by a slow ramp to 95° C.) to control for multiple species in each PCR amplification. Values for each gene were normalized to expression levels of TATA-binding protein. The primers used for real-time PCR were Myt-1 (sense 5′-CCTTCCAAGAGTAGCTCCAATTC-3′ (SEQ ID NO: 19); antisense 5′-GCC GGT AGC TCC CAT ATG G-3′) (SEQ ID NO: 20) and TATA-binding protein (sense 5′-TGC ACA GGA GCC AAG AGT GM-3′ (SEQ ID NO: 21); antisense 5′-CACATCACAGCTCCCCACCA-3′) (SEQ ID NO: 22). miRNA was extracted using the mirVana miRNA extraction kit (Applied Biosystems). Quantification of miRNA (RNU6B and miRNA-27a) was done using the Taqman miRNA kit (Applied Biosystems) according to the manufacturer's protocol with real-time PCR. U6 small nuclear RNA was used as a control to determine relative miRNA expression.

[3] = tested on: RKO and SW480 colon cancer cells; test: Cell proliferation assay in colon cancer cells; type: cell-based
Description: (§3) FIG. 8A: Decreased cell survival in RKO cells. […] Cell survival is expressed as the percentage of β-CDODA-Me-treated cells remaining compared to DMSO (set at 100%).
(§4) RKO and SW480 colon cancer cells (2×10^4 per well) were plated in 12-well plates and allowed to attach for 24 hr. The medium was then changed to DMEM/Ham's F-12 medium containing 2.5% charcoal-stripped FBS, and either vehicle (DMSO) or different concentrations of the compound were added. Fresh medium and compounds were added every 48 hr, and cells were then trypsinized and counted after 48 and 96 hr using a Coulter Z1 cell counter. Transfection experiments in RKO and SW480 cells used 0.4 μg of reporter gene constructs and 0.04 μg of β-Gal and LipofectAMINE 2000 reagent (Invitrogen). Results of cell proliferation and transfection studies are expressed as means±S.E. for at least three replicate determinations for each treatment group. Western blots were determined with whole cell lysates essentially.

RKO cells as xenografts = test: Xenograft study in athymic nude mice; type: in vivo
Description: as §1
Mice were used in accordance with institutional guidelines when they were 8-12 wk old. To produce tumors, RKO cells were harvested from subconfluent cultures by a brief exposure to 0.25% trypsin and 0.02% EDTA and only suspensions consisting of single cells with >90% viability were used for the injections. A xenograft was established by s.c. injection of the cells (5×10^6) into the flanks of individual mice and, after 6 days, mice were randomized into two groups of 5 mice per group and dosed by oral gavage in corn oil or 15 mg/kg/d B-CDODA-Me 5 days a week for 22 days. The mice were weighed, and tumor size was measured every third day with calipers to permit calculation of tumor volumes: V=LW^2/2, where L and W were length and width, respectively. Final tumors weights were determined at the end of the dosing regimen. Tumor tissues and selected body organs (liver and kidney) were either stored in RNAlater solution (per manufacture's recommendations) for later microRNA analysis, snap frozen and stored at −80° C., or fixed in 10% formalin and embedded in paraffin.

[4] = tested on: Sp1, Sp3, Sp4, VEGF, VEGFR1 and survivin; test: Sp and Sp-dependent mRNA and proteins in colon cancer cells (semi-quantitative RT-PCR, Western blot); type: cell-based
From the text: (§5) ID NO: 8), ZBTB10 (sense [NT] ID NO: 9); antisense [NT] ID NO: 10), VEGF (sense [NT] ID NO: 11); antisense [NT] ID NO: 12), VEGFR1 (sense [NT] ID NO: 13); antisense [NT] ID NO: 14), Survivin (sense [NT] ID NO: 15); antisense [NT] ID NO: 16) and GAPDH (sense [NT] ID NO: 17); antisense [NT] ID NO: 18).

miR-27a [5] = test: miR-27a by quantitative real time PCR in colon cancer cells; type: cell-based; conditions: RKO and SW480 cells, 18 hr
Description: as §2

ZBTB10 = ZBTB10 by semi-quantitative RT-PCR in colon cancer cells; type: cell-based; conditions: RKO or SW480 cells, 18 hr
From the text: as §5

Sp1 gene promoter = test: Sp1 promoter construct luciferase activity in RKO cells; type: cell-based
Description: as §4

Sp3 gene promoter = test: Sp3 promoter construct luciferase activity in RKO cells; type: cell-based
Description: as §4

RKO and SW480 cells [6] = test: FACS cell cycle analysis in colon cancer cells; type: cell-based
Description: Effects of β-CDODA-Me. SW480 (FIG. 12A) and RKO (FIG. 12B) cells were treated for 24 hr with DMSO(O), 2.5 and 5.0 μM β-CDODA-Me, and analyzed by FACS analysis. FIG. 12C: iSp modulates Sp protein expression and the cell cycle in SW480 and RKO cells. Cells were transfected with iSp, a combination of small inhibitory RNAs for Sp1, Sp3 and Sp4 or a non-specific oligonucleotide (iLamin), and analyzed for Sp proteins by Western blots (to confirm Sp knockdown) and FACS analysis. FIG. 12D: as-miR-27a modulates the cell cycle. SW480 and RKO cells were transfected with different amounts of as-miR-27a and, after 48 hr, analyzed by FACS. All experiments in FIGS. 12A-12D were repeated three times, and results are expressed as means±SE. Significant (p<0.05) changes compared to untreated (0) or iLamin-treated cells are indicated by asterisks.
RKO and SW480 cells were treated with either the vehicle (DMSO) or the compound for 24 hr or with as-miR27a. Cells were trypsinized, centrifuged, and resuspended in staining solution containing 50 μg/mL propidium iodide, 4 mmol/L sodium citrate and 30 units/mL RNase. After incubation at room temperature for 1 hr, cells were analysed on a FACS Vantage SE DiVa made by Becton Dickinson (BD), using BD FACSDiva Software V4.1.1. Propidium iodide (PI) fluorescence was collected through a 610SP bandpass filter, and list mode data were acquired on a minimum of 50,000 single cells defined by a dot plot of PI width vs. PI area. Data analysis was performed in BD FACSDiva Software V4.1.1 using PI width vs. PI area to exclude cell aggregates.

RKO and SW480 cells [7] = test: Induction of apoptosis / PARP cleavage in colon cancer cells (Western blot); type: cell-based
Description: as §3, §4

[8] = 15 mg/kg/d oral gavage, 5 days a week for 22 days, vs corn oil

Cc1c(Cl)cccc1Nc1ccccc1C(=O)O [tolfenamic acid]
growth of prostate and pancreatic tumors and cells [1]: inhibit growth
levels of miR-27a RNA (miR-27a [2]): decrease

COC(=O)[C@@]1(C)CC[C@]2(C)CC[C@]3(C)C(=CC(=O)[C@@H]4[C@@]5(C)C=C(C#N)C(=O)C(C)(C)[C@@H]5CC[C@]43C)[C@@H]2C1 [β-CDODA-Me, methyl-2-cyano-3,11-dioxo-18β-olean-1,12-dien-30-oate]
cdc2 phosphorylation (Myt-1, Wee-1 and cdc2; RKO and SW480 cells, Western blot): time-dependent induction
Myt-1 mRNA expression (Myt-1, Wee-1 and cdc2; RKO and SW480 cells, real time PCR): induced
Wee-1 expression (Myt-1, Wee-1 and cdc2; SW480 or RKO cells): did not affect
proliferation ([3]; 0.5-5 μM, 4 days): decreased proliferation
proliferation and apoptosis responses after cotreatment with T007 ([3]; T007 10 μM): not affected
body or organ weight loss associated with toxic side effects (RKO cells as xenografts; 15 mg/kg/d): not accompanied by any body or organ weight loss
miR-27a expression in tumors (RKO cells as xenografts; [8]): inhibited
tumor growth (volume) (RKO cells as xenografts; [8]): inhibited
tumor weight (RKO cells as xenografts; [8]): inhibited
Sp1, Sp3 and Sp4 mRNA levels ([4]; 24 hr, semi-quantitative RT-PCR): decreased expression
expression of Sp-dependent proteins survivin, VEGFR1 (Flt-1) and VEGF ([4]; Western blot): decreased expression
miR-27a (miR-27a [5]): decreased
levels of miR-27a RNA (miR-27a [2]): decrease
ZBTB10 levels (ZBTB10): induced
luciferase activity, Sp1 promoter constructs (pSp1For4, pSp1For2, pSp1For1) (Sp1 gene promoter): decreased luciferase activity
luciferase activity, Sp3 promoter constructs (pSp3For5, pSp3For2) (Sp3 gene promoter): decreased luciferase activity
cell cycle arrest (RKO and SW480 cells [6]): induced a G2/M arrest
percentage of cells in S phase (RKO and SW480 cells [6]; 24 hr, 2.5 and 5.0 μM respectively): increased and then decreased
cells in G2/M (RKO and SW480 cells [6]; 24 hr, 2.5 and 5.0 μM, vs DMSO): increase
percentage of cells in G0/G1 (RKO and SW480 cells [6]; 24 hr, 2.5 and 5.0 μM, vs DMSO): concentration-dependent decrease
apoptosis (RKO and SW480 cells [7]; RKO and SW480 cells): induced apoptosis
caspase-dependent PARP cleavage (RKO and SW480 cells [7]; colon cancer cells (β-CDODA-Me: RKO; ZBTB10: SW480 and RKO)): induced
